The results in this text go back to PubChem BioAssay (NCI).

Some test systems named below: UACC-62 melanoma; SK-OV-3 ovarian; IGROV1 ovarian; HS 578T breast; SR leukemia; SF-295 CNS; SW-620 colon; SF-268 CNS; BT-549 breast; SK-MEL-28 melanoma.
Holding throughout (assay): inhibition of tumour cell growth, NCI panel, 48 h

Values joined by “and” are separate entries in the source; they are usually repeats but may differ in a detail not shown here. Identical values can stand only once.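 Assay format: 96-well plates, 48-hour exposure. GI50 marks 50% less growth. Definition used: TGI = concentration required for complete inhibition of growth.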

On to `O=[N+]([O-])c1ccc(Sc2ccncn2)c([N+](=O)[O-])c1`, for which the GI50 in the test on UACC-62 melanoma was 6.32 µM; in the test with SK-OV-3 ovarian it was 8.64 µM; in the test on IGROV1 ovarian, 2.23 µM; in the test on HS 578T breast, 3.06 µM; in the test on SR leukemia, 0.75 µM; in the test with SF-295 CNS, 7.29 µM. Besides, the GI50 in the test on SW-620 colon is 0.413 µM; in the test with SF-268 CNS, 2.75 µM; in the test with BT-549 breast it was 2.7 µM; in the test with SK-MEL-28 melanoma, 4.31 µM. Also, the TGI with UACC-62 melanoma was 19.3 µM; in the test with SK-OV-3 ovarian, 21.7 µM; in the test on IGROV1 ovarian, 5.3 µM; in the test with HS 578T breast, 24.2 µM; with SR leukemia, 3.53 µM; in the test with SF-295 CNS, 20.3 µM. Moreover, the TGI in the test on SW-620 colon was 1.53 µM; in the test with SF-268 CNS, 10.2 µM; with BT-549 breast, 7.55 µM; in the test with SK-MEL-28 melanoma, 9.44 µM.
Take `COc1cccc2c1C(=O)c1c(O)c3c(c(O)c1C2=O)CC(O)(C(=O)CO)CC3OC1CC(N)C(O)C(C)O1` (stereo not drawn): the GI50 in the test on UACC-62 melanoma is 7.54 µg/mL and 18.6 µg/mL; in the test with SK-OV-3 ovarian, 22.6 µg/mL and 14.9 µg/mL; in the test with IGROV1 ovarian, 16.1 µg/mL and 60.1 µg/mL; with HS 578T breast it was 33.8 µg/mL; with SR leukemia it was 0.465 µg/mL and 1.18 µg/mL; in the test on SF-295 CNS it was 18.6 µg/mL and 14.3 µg/mL. The GI50 in the test with SW-620 colon is 7.14 µg/mL and 21.2 µg/mL; in the test on SF-268 CNS, 7.5 µg/mL; in the test on BT-549 breast it was 34.6 µg/mL and 108 µg/mL; in the test on SK-MEL-28 melanoma, 33.8 µg/mL and 44.8 µg/mL. Moreover, the TGI was 27.8 µg/mL and 62 µg/mL in the test with UACC-62 melanoma; 75 µg/mL and 143 µg/mL in the test with SK-OV-3 ovarian; 75 µg/mL and > 150 µg/mL with IGROV1 ovarian; 75 µg/mL with HS 578T breast; 7.2 µg/mL and 6.76 µg/mL in the test on SR leukemia; 75 µg/mL and 116 µg/mL with SF-295 CNS. The TGI with SW-620 colon is 75 µg/mL and > 150 µg/mL; in the test with SF-268 CNS, 75 µg/mL; in the test with BT-549 breast it was 75 µg/mL and > 150 µg/mL; in the test on SK-MEL-28 melanoma, 75 µg/mL and > 150 µg/mL.
As for `C[C@@H](Oc1cc(-n2cnc3ccc(OC[C@@H](O)CO)cc32)sc1C(N)=O)c1ccccc1Cl`, the GI50 was 0.107 µM in the test with UACC-62 melanoma; 0.123 µM in the test with SK-OV-3 ovarian; 0.214 µM in the test on IGROV1 ovarian; 0.171 µM with HS 578T breast; 0.0743 µM in the test on SR leukemia; 0.318 µM in the test on SF-295 CNS. The GI50 with SW-620 colon was 0.0633 µM; in the test on SF-268 CNS, 0.164 µM; with BT-549 breast, 0.194 µM; with SK-MEL-28 melanoma, 0.229 µM. Moreover, the TGI with UACC-62 melanoma was > 25 µM; in the test on SK-OV-3 ovarian, > 25 µM; with IGROV1 ovarian, > 25 µM; in the test with HS 578T breast it was 5.31 µM; in the test with SF-295 CNS it was > 25 µM; with SW-620 colon, > 25 µM. The values for the TGI in the test on SF-268 CNS, in the test on BT-549 breast and in the test with SK-MEL-28 melanoma were > 25 µM, 11.1 µM and > 25 µM, respectively.
`CC1(C)N=C(N)N=C(N)N1c1cccc(Br)c1`: the GI50 was 1.93 µM in the test with UACC-62 melanoma; 1.69 µM with SK-OV-3 ovarian; 0.202 µM in the test on IGROV1 ovarian; > 30.4 µM with HS 578T breast; 0.703 µM in the test on SR leukemia; 0.642 µM in the test on SF-295 CNS. Also, the GI50 with SW-620 colon is 0.216 µM; in the test on SF-268 CNS, 0.0541 µM; with BT-549 breast, 8.04 µM; in the test with SK-MEL-28 melanoma, 14 µM. Moreover, the TGI in the test with UACC-62 melanoma is > 100 µM; in the test on SK-OV-3 ovarian it was > 100 µM; in the test on HS 578T breast it was > 100 µM; in the test with SR leukemia, > 100 µM; in the test with SF-295 CNS, > 38 µM; with SW-620 colon it was > 100 µM. Further, the TGI in the test with SF-268 CNS, in the test on BT-549 breast and with SK-MEL-28 melanoma was > 100 µM each time.
As for `Nc1ncnc2c1ccn2[C@@H]1O[C@H]([C@H](O)c2ccc(Cl)c(F)c2)[C@@H](O)[C@H]1O`, the GI50 with UACC-62 melanoma is > 100 µM; with SK-OV-3 ovarian, > 100 µM; with IGROV1 ovarian it was 48.6 µM; with HS 578T breast, > 100 µM; in the test on SR leukemia it was > 100 µM; with SF-295 CNS it was > 100 µM. For the same molecule, the GI50 with SW-620 colon, with SF-268 CNS, with BT-549 breast and in the test with SK-MEL-28 melanoma was > 100 µM in each case. Further, the TGI with UACC-62 melanoma, in the test with SK-OV-3 ovarian, in the test with IGROV1 ovarian, in the test with HS 578T breast, with SR leukemia and with SF-295 CNS was > 100 µM in each case. The TGI in the test with SW-620 colon, with SF-268 CNS, with BT-549 breast and in the test with SK-MEL-28 melanoma was > 100 µM in each case.
For `COCc1c(-c2ccc(NC(=O)Nc3cc(C(F)(F)F)ccc3F)c(F)c2)c2c(N)ncnn2c1CN1CCOCC1`, the GI50 in the test on UACC-62 melanoma is 1.34 µM; in the test with SK-OV-3 ovarian, 1.61 µM; in the test with IGROV1 ovarian it was 0.438 µM; in the test with HS 578T breast, 0.138 µM; in the test with SR leukemia, 0.398 µM; with SF-295 CNS it was 1.56 µM. In addition, the GI50 was 2.58 µM in the test with SW-620 colon, 1.13 µM with SF-268 CNS, 0.776 µM in the test with BT-549 breast and 3.02 µM with SK-MEL-28 melanoma. Moreover, the TGI was > 10 µM in the test on UACC-62 melanoma; 6.88 µM in the test with SK-OV-3 ovarian; 7.06 µM with IGROV1 ovarian; 0.733 µM with HS 578T breast; 3.9 µM with SR leukemia; 6.54 µM with SF-295 CNS. For the same molecule, the TGI in the test on SW-620 colon was > 10 µM; with SF-268 CNS, 5.2 µM; in the test with BT-549 breast, 6.13 µM; in the test on SK-MEL-28 melanoma it was > 10 µM.
For the molecule `COc1cccc(Nc2nccc(-c3cnn4ncccc34)n2)c1`, the GI50 is 0.0486 µM with UACC-62 melanoma; 0.151 µM with SK-OV-3 ovarian; 0.101 µM in the test on IGROV1 ovarian; 0.0381 µM in the test on HS 578T breast; 0.0114 µM in the test with SR leukemia; 0.0496 µM in the test with SF-295 CNS. Further, the GI50 was 0.0739 µM in the test on SW-620 colon, 0.0721 µM in the test with SF-268 CNS, 0.0714 µM in the test on BT-549 breast and 0.0395 µM in the test with SK-MEL-28 melanoma. Further, the TGI with UACC-62 melanoma is 0.139 µM; in the test with SK-OV-3 ovarian it was > 25 µM; with IGROV1 ovarian, > 25 µM; with HS 578T breast, 0.117 µM; in the test on SR leukemia it was 0.0946 µM; in the test with SF-295 CNS it was > 25 µM. Besides, the TGI is > 12.3 µM in the test with SW-620 colon, 1.42 µM in the test on SF-268 CNS, 6.71 µM with BT-549 breast and 0.14 µM in the test on SK-MEL-28 melanoma.
